Numbers after ± are expanded uncertainties.
Assay: xn = mol fraction of the nth substance listed
Settings: 623.15 K, Liquid, Vibrating tube method

Structure (SMILES): CO [methanol] + O
- mass density (20000 kPa, x1 = 0.04): 554.98 ± 25 kg/m3
- mass density (20000 kPa, x1 = 0.09): 499.06 ± 19 kg/m3
- mass density (20000 kPa, x1 = 0.15): 466.53 ± 22 kg/m3
- mass density (20000 kPa, x1 = 0.18): 408.88 ± 62 kg/m3
- mass density (20000 kPa, x1 = 0.2): 310.04 ± 46 kg/m3
- mass density (20000 kPa, x1 = 0.25): 240.45 ± 19 kg/m3
- mass density (20000 kPa, x1 = 0.38): 198.52 ± 14 kg/m3
- mass density (20000 kPa, x1 = 0.57): 192.93 ± 12 kg/m3
- mass density (20000 kPa, x1 = 0.59): 193.68 ± 12 kg/m3
- mass density (20000 kPa, x1 = 0.73): 195.58 ± 11 kg/m3
- mass density (20000 kPa, x1 = 0.9): 203.5 ± 11 kg/m3
- mass density (20000 kPa, x1 = 0.95): 203.61 ± 11 kg/m3
- mass density (25000 kPa, x1 = 0.06): 592.54 ± 13 kg/m3
- mass density (25000 kPa, x1 = 0.1): 564.26 ± 100 kg/m3
- mass density (25000 kPa, x1 = 0.19): 481.28 ± 22 kg/m3
- mass density (25000 kPa, x1 = 0.29): 388.57 ± 21 kg/m3
- mass density (25000 kPa, x1 = 0.38): 335.66 ± 14 kg/m3
- mass density (25000 kPa, x1 = 0.55): 284.19 ± 13 kg/m3
- mass density (25000 kPa, x1 = 0.8): 268.34 ± 12 kg/m3
- mass density (30000 kPa, x1 = 0.07): 599.12 ± 24 kg/m3
- mass density (30000 kPa, x1 = 0.09): 578.83 ± 15 kg/m3
- mass density (30000 kPa, x1 = 0.12): 569.12 ± 14 kg/m3
- mass density (30000 kPa, x1 = 0.19): 536.54 ± 14 kg/m3
- mass density (30000 kPa, x1 = 0.47): 401.25 ± 14 kg/m3
- mass density (30000 kPa, x1 = 0.54): 383.13 ± 26 kg/m3
- mass density (30000 kPa, x1 = 0.76): 350.39 ± 12 kg/m3
- mass density (35000 kPa, x1 = 0.09): 603.89 ± 15 kg/m3
- mass density (35000 kPa, x1 = 0.18): 552.55 ± 13 kg/m3
- mass density (35000 kPa, x1 = 0.38): 476.16 ± 13 kg/m3
- mass density (35000 kPa, x1 = 0.48): 449.31 ± 12 kg/m3
- mass density (35000 kPa, x1 = 0.55): 432.87 ± 12 kg/m3
- mass density (35000 kPa, x1 = 0.63): 422.11 ± 11 kg/m3
- mass density (35000 kPa, x1 = 0.77): 406.97 ± 11 kg/m3
- mass density (35000 kPa, x1 = 0.87): 397.04 ± 11 kg/m3
